# Tested on: patients with advanced solid tumors
# Test: First-in-human phase 1 dose-escalation study: safety, DLTs, adverse events
# Type: in vivo
# From the text: This multicenter first-in-human dose-escalation phase 1 study (clinicaltrials.gov identifier: NCT03272256) was designed to determine the MTD or RP2D and to evaluate the safety and tolerability of IM156. Secondary endpoints included PK characteristics, efficacy assessment (objective response rate [ORR], disease control rate [DCR], duration of response [DoR] and progression-free survival [PFS]). Furthermore, exploratory objectives included identification and profiling of IM156 metabolites, evaluations of exploratory PD markers of IM156, and evaluations of any potential relationship between putative biomarkers and safety/efficacy parameters of IM156. The study was conducted in accordance with Good Clinical Practice, the International Council for Harmonisation, and guidelines governing clinical study conduct and the ethical principles originating from the Declaration of Helsinki. The study was approved by each Institutional Review Board and patients provided written informed consent. Patients were enrolled at three sites in South Korea.
# The initial dose and schedule of IM156 was chosen based on animal toxicology studies. […] IM156 was administered in the fasted state, with no food for at least 2 h before and 1 h after dosing.
# Three DLT-evaluable patients were enrolled at each dose level. If there were no DLTs or other prohibitive adverse events (AEs), the Safety Committee was allowed to recommend escalation to the next highest dose level. If 1 DLT occurred in the first 3 DLT-evaluable patients, enrollment in that cohort was expanded to an additional 3 DLT-evaluable patients; if ≥ 2 DLTs were reported in a cohort, that dose was considered above the MTD.
# Safety was assessed through vital signs, weight, laboratory assessments, physical examinations, electrocardiogram, and reporting of AEs as graded by the National Cancer Institute’s Common Terminology Criteria for Adverse Events v4.03 (NCI-CTCAE).
# DLTs were defined as the following AEs if they were attributed as related to IM156: asymptomatic grade 4 neutropenia lasting for ≥ 5 days; febrile neutropenia, regardless of grade; grade 4 thrombocytopenia or grade 3 thrombocytopenia with bleeding; any grade ≥ 3 non-hematologic AE (except grade 3 hypertension and grade 3 nausea, vomiting or diarrhea for which proper measures for prevention and treatment were not implemented, and alopecia); blood lactate levels > 5 mmol; grade ≥ 2 AE prohibiting dosing of IM156 for ≥ 21 continuous days except for alterations in serum calcium or phosphorus levels. The safety analysis includes all patients who received at least one dose of study drug.
# The safety population was defined as all patients who received at least one dose of IM156. The PK population was not defined in the protocol but included all patients with sufficient PK data to perform adequate PK modeling. The efficacy population included all patients who underwent at least one tumor imaging assessment while receiving IM156. Safety was assessed using descriptive statistics (e.g., DLTs, AEs, laboratory tests, physical examination, 12-lead ECG). The incidence and number of events were reported for the DLTs observed in Cycle 1 per dose group. […] Adverse events and TRAEs were standardized with the System Organ Class and the Preferred Term using the Medical Dictionary for Regulatory Activities v23.0. In addition, TEAEs, serious adverse events (SAEs), TEAE severity, and TEAEs leading to withdrawal were presented by dose group. Efficacy data were to be presented by Waterfall and Swim Lane plots. Time to event endpoints (e.g., DoR, PFS) were determined using Kaplan–Meier estimations with the median value for each endpoint summarized.
compound,measurement,setting,value
NC(=Nc1ccc(OC(F)(F)F)cc1)N=C(N)N1CCCC1 [IM156],TEAE Pain in extremity grade 4,DL6 800 mg orally daily (n=3),0
same,TEAE Pruritus grade 1,DL6 800 mg orally daily (n=3),0
same,TEAE Pruritus grade 2,DL6 800 mg orally daily (n=3),0
same,TEAE Pruritus grade 3,DL6 800 mg orally daily (n=3),0
same,TEAE Pruritus grade 4,DL6 800 mg orally daily (n=3),0
same,TEAE Psychiatric disorders grade 1,DL6 800 mg orally daily (n=3),1
same,TEAE Psychiatric disorders grade 2,DL6 800 mg orally daily (n=3),0
same,TEAE Psychiatric disorders grade 3,DL6 800 mg orally daily (n=3),0
same,TEAE Psychiatric disorders grade 4,DL6 800 mg orally daily (n=3),0
same,TEAE Purpura grade 1,DL6 800 mg orally daily (n=3),0
same,TEAE Purpura grade 2,DL6 800 mg orally daily (n=3),0
same,TEAE Purpura grade 3,DL6 800 mg orally daily (n=3),0
same,TEAE Purpura grade 4,DL6 800 mg orally daily (n=3),0
same,TEAE Urinary retention grade 1,DL6 800 mg orally daily (n=3),0
same,TEAE Urinary retention grade 2,DL6 800 mg orally daily (n=3),0
same,TEAE Urinary retention grade 3,DL6 800 mg orally daily (n=3),0
same,TEAE Urinary retention grade 4,DL6 800 mg orally daily (n=3),0
same,TEAE Urinary tract disorder grade 1,DL6 800 mg orally daily (n=3),0
same,TEAE Urinary tract disorder grade 2,DL6 800 mg orally daily (n=3),0
same,TEAE Urinary tract disorder grade 3,DL6 800 mg orally daily (n=3),0
same,TEAE Urinary tract disorder grade 4,DL6 800 mg orally daily (n=3),0
same,"TEAE Abdominal pain, grade 2",DL7 1200 mg QD (n=4),2
same,"TEAE Akathisia, grade 2",DL7 1200 mg QD (n=4),1
same,"TEAE Alanine aminotransferase increased, grade 1",DL7 1200 mg QD (n=4),1
same,"TEAE Aspartate aminotransferase increased, grade 1",DL7 1200 mg QD (n=4),1
same,"TEAE Blood creatinine increased, grade 1",DL7 1200 mg QD (n=4),2
same,"TEAE Blood lactic acid increased, grade 1",DL7 1200 mg QD (n=4),1
same,"TEAE Constipation, grade 1",DL7 1200 mg QD (n=4),1
same,"TEAE Decreased appetite, grade 2",DL7 1200 mg QD (n=4),1
same,"TEAE Diarrhoea, grade 1",DL7 1200 mg QD (n=4),2
same,"TEAE Dysesthesia, grade 1",DL7 1200 mg QD (n=4),1
same,"TEAE Fatigue, grade 2",DL7 1200 mg QD (n=4),3
same,"TEAE Gastritis, grade 1",DL7 1200 mg QD (n=4),1
same,"TEAE Hemoptysis, grade 2",DL7 1200 mg QD (n=4),1
same,"TEAE Hyperkalaemia, grade 3",DL7 1200 mg QD (n=4),1
same,"TEAE Ileus, grade 2",DL7 1200 mg QD (n=4),1
same,"TEAE Influenza like illness, grade 1",DL7 1200 mg QD (n=4),1
same,"TEAE Lethargy, grade 2",DL7 1200 mg QD (n=4),1
same,"TEAE Nausea, grade 2",DL7 1200 mg QD (n=4),2
same,"TEAE Nausea, grade 3",DL7 1200 mg QD (n=4),2
same,"TEAE Oedema peripheral, grade 2",DL7 1200 mg QD (n=4),1
same,"TEAE Pain, grade 2",DL7 1200 mg QD (n=4),1
same,"TEAE Platelet count decreased, grade 1",DL7 1200 mg QD (n=4),1
same,"TEAE Pyrexia, grade 1",DL7 1200 mg QD (n=4),2
same,"TEAE Pyrexia, grade 2",DL7 1200 mg QD (n=4),1
same,"TEAE Vomiting, grade 1",DL7 1200 mg QD (n=4),3
same,"TRAE Abdominal Pain, > G3 (patients)","DL7 1,200 mg QD, N = 4",0
same,"TRAE Abdominal Pain, All grades (patients)","DL7 1,200 mg QD, N = 4",1
same,"TRAE Blood Lactic Acid increased, > G3 (patients)","DL7 1,200 mg QD, N = 4",0
same,"TRAE Blood Lactic Acid increased, All grades (patients)","DL7 1,200 mg QD, N = 4",1
same,"TRAE Constipation, > G3 (patients)","DL7 1,200 mg QD, N = 4",0
same,"TRAE Constipation, All grades (patients)","DL7 1,200 mg QD, N = 4",1
same,"TRAE Decreased appetite, > G3 (patients)","DL7 1,200 mg QD, N = 4",0
same,"TRAE Decreased appetite, All grades (patients)","DL7 1,200 mg QD, N = 4",1
same,"TRAE Diarrhoea, > G3 (patients)","DL7 1,200 mg QD, N = 4",0
same,"TRAE Diarrhoea, All grades (patients)","DL7 1,200 mg QD, N = 4",1
same,"TRAE Fatigue, > G3 (patients)","DL7 1,200 mg QD, N = 4",0
same,"TRAE Fatigue, All grades (patients)","DL7 1,200 mg QD, N = 4",3
same,"TRAE Insomnia, > G3 (patients)","DL7 1,200 mg QD, N = 4",0
same,"TRAE Insomnia, All grades (patients)","DL7 1,200 mg QD, N = 4",0
same,"TRAE Nausea, > G3 (patients)","DL7 1,200 mg QD, N = 4",2
same,"TRAE Nausea, All grades (patients)","DL7 1,200 mg QD, N = 4",4
same,"TRAE Vomiting, > G3 (patients)","DL7 1,200 mg QD, N = 4",0
same,"TRAE Vomiting, All grades (patients)","DL7 1,200 mg QD, N = 4",3
same,TEAE Adrenal insufficiency grade 1,DL7 1200 mg orally daily (n=4),0
same,TEAE Adrenal insufficiency grade 2,DL7 1200 mg orally daily (n=4),0
same,TEAE Adrenal insufficiency grade 3,DL7 1200 mg orally daily (n=4),0
same,TEAE Adrenal insufficiency grade 4,DL7 1200 mg orally daily (n=4),0
same,TEAE Anaemia grade 1,DL7 1200 mg orally daily (n=4),0
same,TEAE Anaemia grade 2,DL7 1200 mg orally daily (n=4),1
same,TEAE Anaemia grade 3,DL7 1200 mg orally daily (n=4),1
same,TEAE Anaemia grade 4,DL7 1200 mg orally daily (n=4),0
same,TEAE Appendicitis perforated grade 1,DL7 1200 mg orally daily (n=4),0
same,TEAE Appendicitis perforated grade 2,DL7 1200 mg orally daily (n=4),0
same,TEAE Appendicitis perforated grade 3,DL7 1200 mg orally daily (n=4),1
same,TEAE Appendicitis perforated grade 4,DL7 1200 mg orally daily (n=4),0
same,TEAE Back pain grade 1,DL7 1200 mg orally daily (n=4),0
same,TEAE Back pain grade 2,DL7 1200 mg orally daily (n=4),0
same,TEAE Back pain grade 3,DL7 1200 mg orally daily (n=4),0
same,TEAE Back pain grade 4,DL7 1200 mg orally daily (n=4),0
same,TEAE Cystitis grade 1,DL7 1200 mg orally daily (n=4),0
same,TEAE Cystitis grade 2,DL7 1200 mg orally daily (n=4),0
same,TEAE Cystitis grade 3,DL7 1200 mg orally daily (n=4),0
same,TEAE Cystitis grade 4,DL7 1200 mg orally daily (n=4),0
same,TEAE Dry skin grade 1,DL7 1200 mg orally daily (n=4),0
same,TEAE Dry skin grade 2,DL7 1200 mg orally daily (n=4),1
same,TEAE Dry skin grade 3,DL7 1200 mg orally daily (n=4),0
same,TEAE Dry skin grade 4,DL7 1200 mg orally daily (n=4),0
same,TEAE Flank pain grade 1,DL7 1200 mg orally daily (n=4),0
same,TEAE Flank pain grade 2,DL7 1200 mg orally daily (n=4),0
same,TEAE Flank pain grade 3,DL7 1200 mg orally daily (n=4),0
same,TEAE Flank pain grade 4,DL7 1200 mg orally daily (n=4),0
same,TEAE Hypertension grade 1,DL7 1200 mg orally daily (n=4),0
same,TEAE Hypertension grade 2,DL7 1200 mg orally daily (n=4),0
same,TEAE Hypertension grade 3,DL7 1200 mg orally daily (n=4),0
same,TEAE Hypertension grade 4,DL7 1200 mg orally daily (n=4),0
same,TEAE Hypotension grade 1,DL7 1200 mg orally daily (n=4),0
same,TEAE Hypotension grade 2,DL7 1200 mg orally daily (n=4),0
same,TEAE Hypotension grade 3,DL7 1200 mg orally daily (n=4),0
same,TEAE Hypotension grade 4,DL7 1200 mg orally daily (n=4),0
same,TEAE Insomnia grade 1,DL7 1200 mg orally daily (n=4),0
same,TEAE Insomnia grade 2,DL7 1200 mg orally daily (n=4),0
same,TEAE Insomnia grade 3,DL7 1200 mg orally daily (n=4),0
same,TEAE Insomnia grade 4,DL7 1200 mg orally daily (n=4),0
same,TEAE Pain in extremity grade 1,DL7 1200 mg orally daily (n=4),0
same,TEAE Pain in extremity grade 2,DL7 1200 mg orally daily (n=4),0
same,TEAE Pain in extremity grade 3,DL7 1200 mg orally daily (n=4),0
same,TEAE Pain in extremity grade 4,DL7 1200 mg orally daily (n=4),0
same,TEAE Pruritus grade 1,DL7 1200 mg orally daily (n=4),1
same,TEAE Pruritus grade 2,DL7 1200 mg orally daily (n=4),0
same,TEAE Pruritus grade 3,DL7 1200 mg orally daily (n=4),0
same,TEAE Pruritus grade 4,DL7 1200 mg orally daily (n=4),0
same,TEAE Psychiatric disorders grade 1,DL7 1200 mg orally daily (n=4),0
same,TEAE Psychiatric disorders grade 2,DL7 1200 mg orally daily (n=4),0
same,TEAE Psychiatric disorders grade 3,DL7 1200 mg orally daily (n=4),0
same,TEAE Psychiatric disorders grade 4,DL7 1200 mg orally daily (n=4),0
same,TEAE Purpura grade 1,DL7 1200 mg orally daily (n=4),1

# Source: publication PMC9395488, “First-in-human study of IM156, a novel potent biguanide oxidative phosphorylation (OXPHOS) inhibitor, in patients with advanced solid tumors” (Investigational New Drugs, 2022)
